From publication PMC9949808 (eLife, 2023) come the findings set out here.

Experiment [1] deals with T1, PSII reaction centre (Dunaliella salina, UniProt A0A1C8XRK9+D0FY08).
T1 construct: gene psbA; native D1/D2 heterodimer in PSII C2S2 supercomplex purified from D. salina
Kind of experiment: cryo-EM structure. Format: binding. The settings on record: type a inferred.

The target of experiment [2] is photosystem II (PSII) core, one of the two cores of the dimer (Dunaliella salina). Kind of experiment: cryo-EM structure; native PSII purified from D. salina thylakoids (1% α-DM, sucrose gradient), in 25 mM MES pH 6.5, 1 mM CaCl2, 5 mM MgCl2, 0.1% α-DM; unstacked particles: C2S2 compact 2.43 Å, C2S2 stretched 2.62 Å, C2S 3.61 Å.

For the molecule `C=Cc1c(C)c2cc3nc(c4c5[nH]c(cc6nc(cc1[nH]2)C(C)=C6CC)c(C)c5C(=O)[C@@H]4C(=O)OC)[C@@H](CCC(=O)OC/C=C(\C)CCC[C@H](C)CCC[C@H](C)CCCC(C)C)[C@@H]3C` [pheophytin], the cryo-EM structure entry in experiment [1] was “PSII reaction centre chlorophylls (Chls), pheophytins, and quinone”.

Broadly, the stoichiometry N is a count of units in the complex or per binding partner. On to “photosystem II (PSII) core, one of the two cores of the dimer (complex)”, for which the stoichiometry N in experiment [2] came out at 2.
